This is an account of results in ChEMBL document CHEMBL1201862, “PubChem BioAssay data set” (2004).

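Where inhibition never reached the appropriate level, the endpoint shown equals the highest concentration tested. Otherwise, values were interpolated linearly from a five-concentration, 48-hour dose response in 96-well plates. GI50 = concentration required for 50% inhibition of growth.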 Calls of active or inactive are those of the source. No stated cut-off is given here; in the data, active = GI50 up to about 1.1 µM and inactive = higher.

Test systems include HCT-116; SF-539; T47D; UO-31; PC-3; NCI-H226; NCI-H460; HT-29; SW-620; DU-145; HOP-62; SF-268; NCI/ADR-RES; Hs-578T; RPMI-8226; SK-MEL-2; MOLT-4; SF-295; HL-60; SNB-19.
Assay in all cases: NCI tumour cell line growth inhibition, 48 h

Regarding `COC(=O)CCC(C)[C@H]1CCC2C3C(C[C@H](OC(C)=O)[C@@]21C)[C@@]1(C)CCC2(C[C@H]1C[C@H]3OC(C)=O)OOC1(CCC(C(C)(C)C)CC1)OO2` (stereo not given in full), the GI50 is 3.97 µM (inactive) in the experiment with HCT-116; 68.7 µM (inactive) with SF-539; 5.71 µM (inactive) in the experiment on T47D; 12.4 µM (inactive) in the experiment with UO-31; 6.7 µM (inactive) in the experiment on PC-3; 59 µM (inactive) in the experiment with NCI-H226. For the same compound, the GI50 is 5.65 µM (inactive) in the experiment with NCI-H460; > 100 µM (inactive) in the experiment on HT-29; 12.3 µM (inactive) in the experiment with SW-620; > 100 µM (inactive) in the experiment on DU-145; 9.73 µM (inactive) in the experiment with HOP-62; 18.6 µM (inactive) in the experiment with SF-268. Further, the GI50 in the experiment with NCI/ADR-RES is > 100 µM (inactive); in the experiment with Hs-578T it was 5.43 µM (inactive); in the experiment on RPMI-8226 it was 3.91 µM (inactive); with SK-MEL-2, > 100 µM (inactive); in the experiment with MOLT-4 it was 7.52 µM (inactive); in the experiment with SF-295, 7.53 µM (inactive). Besides, the results for the GI50 with HL-60 and in the experiment with SNB-19 were 9.4 µM (inactive) and > 100 µM (inactive), respectively.

Turning to `CCCCn1cc(C(=O)O)c(=O)c2c3sccc3ccc21`, the GI50 was > 100 µM (inactive) in the experiment on HCT-116; > 100 µM (inactive) with SF-539; > 100 µM (inactive) in the experiment with T47D; 20 µM (inactive) in the experiment with UO-31; > 100 µM (inactive) with PC-3; > 100 µM (inactive) in the experiment with NCI-H226. Also, the GI50 with NCI-H460, with HT-29, with SW-620, in the experiment on DU-145, in the experiment on HOP-62 and with SF-268 was > 100 µM (inactive) in each case. In addition, the GI50 in the experiment with NCI/ADR-RES is 19.9 µM (inactive); in the experiment with Hs-578T it was > 100 µM (inactive); in the experiment on RPMI-8226, > 100 µM (inactive); in the experiment with SK-MEL-2, > 100 µM (inactive); in the experiment with MOLT-4, > 100 µM (inactive); in the experiment on SF-295, 74.8 µM (inactive). The GI50 in the experiment with HL-60 is 34.8 µM (inactive); with SNB-19 it was > 100 µM (inactive).

For the compound `COCOC1/C=C/CCCCC2=C(C)C=C(C1)O2` (stereo not given), the GI50 in the experiment on HCT-116, in the experiment with SF-539, with T47D, in the experiment on UO-31, in the experiment with PC-3 and in the experiment on NCI-H226 was > 100 µM (inactive) throughout. Moreover, the GI50 in the experiment on NCI-H460, in the experiment on HT-29, with SW-620, in the experiment with DU-145, with HOP-62 and in the experiment with SF-268 was > 100 µM (inactive) in each case. Also, the GI50 in the experiment with NCI/ADR-RES, in the experiment with Hs-578T, in the experiment on RPMI-8226, with SK-MEL-2, in the experiment on MOLT-4 and with SF-295 was > 100 µM (inactive) in each case. Besides, the figures for the GI50 in the experiment on HL-60 and with SNB-19 were 45.4 µM (inactive) and > 100 µM (inactive), respectively.

Consider `C(=C/CCCN1O[C@@H](CCCCCCCCc2cccnc2)[C@H]2CCC[C@H]21)/CCCCCCCCCc1cccnc1`, for which the GI50 with HCT-116 was 16 µM (inactive); with SF-539 it was 18.1 µM (inactive); with T47D it was 20.7 µM (inactive); in the experiment with UO-31 it was 19.4 µM (inactive); in the experiment on PC-3 it was 18.8 µM (inactive); with NCI-H226 it was 16.4 µM (inactive). For the same compound, the GI50 with NCI-H460 was 17.3 µM (inactive); in the experiment with HT-29, 21.9 µM (inactive); with SW-620, 31.3 µM (inactive); with DU-145, 32.4 µM (inactive); in the experiment on HOP-62, 20.8 µM (inactive); in the experiment with SF-268, 23.4 µM (inactive). Besides, the GI50 in the experiment with NCI/ADR-RES was 28.1 µM (inactive); in the experiment on Hs-578T, 37.8 µM (inactive); in the experiment with RPMI-8226 it was 7.96 µM (inactive); in the experiment on SK-MEL-2, 22.4 µM (inactive); in the experiment with MOLT-4 it was 21.7 µM (inactive); in the experiment with SF-295, 20 µM (inactive). The GI50 is 5.22 µM (inactive) in the experiment with HL-60 and 25.6 µM (inactive) in the experiment on SNB-19.

`Cc1ccc(S(=O)(=O)N2CCNCCN(S(=O)(=O)c3ccc(C)cc3)CCN(S(=O)(=O)c3ccc(C)cc3)CC2)cc1`: the GI50 in the experiment on HCT-116, with SF-539, with T47D, in the experiment on UO-31, in the experiment with PC-3 and with NCI-H226 was > 100 µM (inactive) throughout. In addition, the GI50 with NCI-H460, with HT-29, in the experiment on SW-620, in the experiment with DU-145, in the experiment with HOP-62 and with SF-268 was > 100 µM (inactive) throughout. Also, the GI50 in the experiment with NCI/ADR-RES, with Hs-578T, in the experiment with RPMI-8226, in the experiment on SK-MEL-2, in the experiment on MOLT-4 and in the experiment with SF-295 was > 100 µM (inactive) in each case. The GI50 in the experiment on HL-60 and in the experiment on SNB-19 was > 100 µM (inactive) each time.

Consider `O=P1(C(O)/C=C/c2ccccc2)N(Cc2ccccc2)[C@H](c2ccccc2)[C@@H](c2ccccc2)N1Cc1ccccc1` (stereo not given in full), for which the GI50 with HCT-116 was 8.15 µM (inactive); with SF-539 it was > 51.3 µM (inactive); in the experiment on T47D it was 7.13 µM (inactive); with UO-31, 12.5 µM (inactive); with PC-3 it was 7.55 µM (inactive); with NCI-H226, 36.6 µM (inactive). The GI50 with NCI-H460 was 15 µM (inactive); with HT-29 it was 14.2 µM (inactive); in the experiment on SW-620, 26.1 µM (inactive); in the experiment with DU-145 it was 38.5 µM (inactive); with HOP-62, 29.8 µM (inactive); in the experiment on SF-268 it was 23.8 µM (inactive). The GI50 in the experiment on NCI/ADR-RES is 26 µM (inactive); in the experiment on Hs-578T it was 26.2 µM (inactive); in the experiment on RPMI-8226 it was 3.63 µM (inactive); in the experiment on SK-MEL-2, 14.1 µM (inactive); in the experiment with MOLT-4, 2.61 µM (inactive); in the experiment on SF-295, 14 µM (inactive). Besides, the GI50 was 6.87 µM (inactive) with HL-60 and 24.3 µM (inactive) with SNB-19.

With `COc1ccc(C(c2ccc(OC)cc2)N2C(=O)CCC2C(=O)O)cc1` (stereo not given), the GI50 with HCT-116, in the experiment with SF-539, in the experiment with T47D, in the experiment with UO-31, with PC-3 and with NCI-H226 was > 100 µM (inactive) each time. For the same compound, the GI50 in the experiment on NCI-H460, with HT-29, with SW-620, in the experiment on DU-145, with HOP-62 and in the experiment on SF-268 was > 100 µM (inactive) each time. The GI50 in the experiment with NCI/ADR-RES, in the experiment on Hs-578T, in the experiment on RPMI-8226, in the experiment with SK-MEL-2, in the experiment on MOLT-4 and in the experiment with SF-295 was > 100 µM (inactive) in each case. Besides, the GI50 with HL-60 and in the experiment on SNB-19 was > 100 µM (inactive) each time.

Turning to `CCC(C)C(C(=O)N/N=C1/SCC(=O)N1C)C(=O)N/N=C1/SCC(=O)N1C` (stereo not given), the GI50 in the experiment on HCT-116, with SF-539, with T47D, in the experiment with UO-31, in the experiment on PC-3 and in the experiment with NCI-H226 was > 100 µM (inactive) in each case. The GI50 with NCI-H460, with HT-29, with SW-620, in the experiment with DU-145, in the experiment on HOP-62 and in the experiment on SF-268 was > 100 µM (inactive) in each case. Also, the GI50 with NCI/ADR-RES, in the experiment on Hs-578T, with RPMI-8226, in the experiment on SK-MEL-2, with MOLT-4 and in the experiment with SF-295 was > 100 µM (inactive) throughout. The GI50 in the experiment on HL-60 was 2.04 µM (inactive); with SNB-19 it was > 100 µM (inactive).

In the case of `COc1cc2c(cc1OC)-c1cc3cc(OC)c(OC)cc3c(C)[n+]1CC2.O=C([O-])CS(=O)(=O)O`, the GI50 was 73.5 µM (inactive) with HCT-116; 76.6 µM (inactive) in the experiment with SF-539; 2.82 µM (inactive) in the experiment with T47D; > 100 µM (inactive) in the experiment on UO-31; 15.9 µM (inactive) with PC-3; > 100 µM (inactive) with NCI-H226. For the same compound, the GI50 is 13.8 µM (inactive) with NCI-H460; > 100 µM (inactive) in the experiment on HT-29; > 100 µM (inactive) with SW-620; > 100 µM (inactive) in the experiment on DU-145; > 100 µM (inactive) in the experiment with HOP-62; 0.975 µM (active) with SF-268. Also, the GI50 is > 100 µM (inactive) in the experiment with NCI/ADR-RES; > 100 µM (inactive) in the experiment with Hs-578T; > 100 µM (inactive) in the experiment on RPMI-8226; > 100 µM (inactive) with SK-MEL-2; 9.51 µM (inactive) with MOLT-4; > 100 µM (inactive) in the experiment on SF-295. The GI50 with HL-60 is > 100 µM (inactive); with SNB-19, 41.7 µM (inactive).

`Oc1cc(Cc2ccccc2)c(Cc2ccccc2)cc1O`: the GI50 in the experiment on HCT-116, in the experiment with SF-539, in the experiment on T47D, in the experiment on UO-31, in the experiment with PC-3 and with NCI-H226 was > 10 µM (inactive) in each case. Also, the GI50 in the experiment with NCI-H460, with HT-29, in the experiment with SW-620, with DU-145, in the experiment on HOP-62 and in the experiment on SF-268 was > 10 µM (inactive) each time. In addition, the GI50 with NCI/ADR-RES, in the experiment on Hs-578T, in the experiment on RPMI-8226, in the experiment with SK-MEL-2, in the experiment with MOLT-4 and with SF-295 was > 10 µM (inactive) throughout. For the same compound, the GI50 in the experiment with HL-60 and in the experiment with SNB-19 was > 10 µM (inactive) throughout.
